Values quoted from earlier work, collected in US10585101B2, “Prostatic liquid biopsy for the detection of prostate cancer and benign prostatic hyperplasia” (WAVESENSE, INC., priority 2016, dated 2020).

System: prostate cancer
Conditions: long term use

In the case of `CC(C)(C)NC(=O)[C@H]1CC[C@H]2[C@@H]3CC[C@H]4NC(=O)C=C[C@]4(C)[C@H]3CC[C@]12C` [finasteride, Finasteride], the “risk of low-grade prostate cancer” value is given as “decreased the risk of low-grade prostate cancer”.
